# Test results reported in paper PMC10649961, “Novel Mitochondria-Targeted Amphiphilic Aminophosphonium Salts and Lipids Nanoparticles: Synthesis, Antitumor Activity and Toxicity” (Nanomaterials, 2023).
# Read-outs that look alike come from different tables or passages of the source.
# Columns and labels:
# [1] = tested on: Escherichia coli ATCC 25922; test: Antimicrobial activity, serial microdilutions, Ec; format: cell-based; set-up: key to Minimum Inhibitory Concentration (MIC) / Minimum bactericidal and fungicidal concentrations (MBC, MFC): – means non-active
# Protocol: (§1) The antimicrobial activity of test compounds was determined by serial microdilutions in 96-well plates using Mueller-Hinton broth for bacterial culture and Sabouraud broth for yeast culture. Cultures of Gram-positive bacteria were used in the experiment: Staphylococcus aureus ATCC 6538 P FDA 209P, Bacillus cereus ATCC 10702 NCTC 8035, Enterococcus faecalis ATCC 29212; Gram-negative bacteria: Escherichia coli ATCC 25922, Pseudomonas aeruginosa ATCC 9027; and yeast: Candida albicans ATCC 10231, purchased from the State Collection of Pathogenic Microorganisms and Cell Cultures “SCPM-Obolensk” (Obolensk, Russia). Methicillin-resistant strains of S. aureus (MRSA) were isolated from patients with chronic tonsillitis (MRSA-1) and sinusitis (MRSA-2) in the bacteriological laboratory of the Republican Clinical Hospital (Kazan, Russia). The experiments were carried out in triplicate.
# [2] = tested on: Candida albicans ATCC 10231; test: Antimicrobial activity, serial microdilutions, Ca; format: cell-based; set-up: key to Minimum Inhibitory Concentration (MIC) / Minimum bactericidal and fungicidal concentrations (MBC, MFC): – means non-active
# Protocol: as §1
# [3] = tested on: Pseudomonas aeruginosa ATCC 9027; test: Antimicrobial activity, serial microdilutions, Pa; format: cell-based; set-up: key to Minimum Inhibitory Concentration (MIC) / Minimum bactericidal and fungicidal concentrations (MBC, MFC): – means non-active
# Protocol: as §1
# [4] = tested on: Staphylococcus aureus ATCC 6538 P FDA 209P; test: Antimicrobial activity, serial microdilutions, Sa; format: cell-based; settings: Staphylococcus aureus; for MIC: read-out: Minimum Inhibitory Concentration (MIC); for MBC: read-out: Minimum bactericidal and fungicidal concentrations (MBC, MFC)
# Protocol: as §1
# [5] = tested on: Enterococcus faecalis ATCC 29212; test: Antimicrobial activity, serial microdilutions, Ef; format: cell-based; set-up: key to Minimum Inhibitory Concentration (MIC) / Minimum bactericidal and fungicidal concentrations (MBC, MFC): – means non-active
# Protocol: as §1
# [6] = tested on: MRSA-1; test: Antimicrobial activity, serial microdilutions, MRSA-1; format: cell-based, S. aureus; set-up: key to Minimum Inhibitory Concentration (MIC) / Minimum bactericidal and fungicidal concentrations (MBC, MFC): – means non-active
# Protocol: as §1
# [7] = tested on: Bacillus cereus ATCC 10702 NCTC 8035; test: Antimicrobial activity, serial microdilutions, Bc; format: cell-based; set-up: key to Minimum bactericidal and fungicidal concentrations (MBC, MFC): – means non-active; settings: for MIC: read-out: Minimum Inhibitory Concentration (MIC)
# Protocol: as §1
# [8] = tested on: MRSA-2; test: Antimicrobial activity, serial microdilutions, MRSA-2; format: cell-based, S. aureus; settings: Staphylococcus aureus; for MIC: read-out: Minimum Inhibitory Concentration (MIC); for MBC: read-out: Minimum bactericidal and fungicidal concentrations (MBC, MFC)
# Protocol: as §1
# [9] = tested on: A549; test: cells; settings: Homo sapiens, A549, 48 h, read-out: Cytotoxic Effects (IC50)
# [10] = tested on: DU-145; test: cells; settings: Homo sapiens, DU-145, 48 h
# [11] = tested on: M-HeLa; test: cells; settings: Homo sapiens, 48 h, read-out: Cytotoxic Effects (IC50)
# [12] = tested on: Hep G2; settings: reference normal cell line not marked at the place (ns cells)
# [13] = tested on: SK-OV-3; settings: calculated relative to the cell line WI38 (a)
# [14] = tested on: PANC-1; settings: calculated relative to the cell line WI38 (a)
# [15] = tested on: T98G; test: cells; settings: Homo sapiens, 48 h, read-out: Cytotoxic Effects (IC50)
# [16] = tested on: HuTu 80; settings: calculated relative to the cell line WI38 (a)
# [17] = tested on: Hep G2; test: cells; settings: Homo sapiens, HepG2, 48 h, read-out: Cytotoxic Effects (IC50)
# [18] = tested on: MCF-7; test: cells; settings: Homo sapiens, MCF7, 48 h, read-out: Cytotoxic Effects (IC50)
# [19] = tested on: SK-OV-3; test: cells; settings: Homo sapiens, SK-OV-3, 48 h, read-out: Cytotoxic Effects (IC50)
# [20] = tested on: MCF-7; settings: calculated relative to the cell line WI38 (a)
# [21] = tested on: PC3; test: cells; settings: Homo sapiens, PC-3, 48 h, read-out: Cytotoxic Effects (IC50), PC3, MTT assay, 48 h
# [22] = tested on: PC3; settings: calculated relative to the cell line WI38 (a)
# [23] = tested on: DU-145; settings: reference normal cell line not marked at the place (ns cells)
# [24] = tested on: PANC-1; test: cells; settings: Homo sapiens, PANC-1, 48 h, read-out: Cytotoxic Effects (IC50)
# [25] = tested on: HuTu 80; test: cells; settings: Homo sapiens, HuTu80, 48 h, read-out: Cytotoxic Effects (IC50)
# [26] = tested on: M-HeLa; settings: calculated relative to the cell line WI38 (a)
smiles,measurement,setting,value
"CC(=O)N1CCN(c2ccc(OCC3COC(Cn4ccnc4)(c4ccc(Cl)cc4Cl)O3)cc2)CC1 (stereo not shown) [Ketoconazole, reference compound]",Minimum Inhibitory Concentration (MIC),[1],–
same,MIC,"[2]; Candida albicans, ATCC10231, read-out: Minimum Inhibitory Concentration (MIC)",7.3 ± 0.5 µM
same,MBC,"[2]; Candida albicans, ATCC10231, read-out: Minimum bactericidal and fungicidal concentrations (MBC, MFC)",7.3 ± 0.5 µM
"CCn1cc(C(=O)O)c(=O)c2cc(F)c(N3CCNCC3)cc21 [Norfloxacin, reference compound]",MIC,"[3]; Pseudomonas aeruginosa, ATCC9027, read-out: Minimum Inhibitory Concentration (MIC)",12.1 ± 1.1 µM
same,MBC,"[3]; Pseudomonas aeruginosa, ATCC9027, read-out: Minimum bactericidal and fungicidal concentrations (MBC, MFC)",49 ± 4.2 µM
same,MIC,"[1]; Escherichia coli, ATCC25922, read-out: Minimum Inhibitory Concentration (MIC)",4.7 ± 0.02 µM
same,MBC,"[1]; Escherichia coli, ATCC25922, read-out: Minimum bactericidal and fungicidal concentrations (MBC, MFC)",24.4 ± 2.3 µM
same,MIC,[4],7.5 ± 0.5 µM
same,MBC,[4],7.5 ± 0.6 µM
same,MIC,"[5]; Enterococcus faecalis, ATCC29212, read-out: Minimum Inhibitory Concentration (MIC)",24.4 ± 2.2 µM
same,MBC,"[5]; Enterococcus faecalis, ATCC29212, read-out: Minimum bactericidal and fungicidal concentrations (MBC, MFC)",24.4 ± 1.9 µM
same,Minimum Inhibitory Concentration (MIC),[6],–
same,"Minimum bactericidal and fungicidal concentrations (MBC, MFC)",[6],–
same,MIC,"[7]; Bacillus cereus, Bc",24.4 ± 2.1 µM
same,MBC,"[7]; Bacillus cereus, read-out: Minimum bactericidal and fungicidal concentrations (MBC, MFC)",24.4 ± 2.1 µM
same,Minimum Inhibitory Concentration (MIC),[2]; Ca,–
same,MIC,[8],7.5 ± 0.5 µM
same,MBC,[8],7.5 ± 0.6 µM
"CCN(CC)[P+](CCCCCC[P+](N(CC)CC)(N(CC)CC)N(CC)CC)(N(CC)CC)N(CC)CC [compound 9, 1,6-Hexanediyl-bis(hexaethyltriaminophosphonium)dibromide]",IC50,[9],> 100 µM
same,IC50,"[10]; read-out: Cytotoxic Effects (IC50), DU-145, MTT assay, 48 h",50.5 ± 6.4 µM
same,IC50,[11],31.1 ± 3.9 µM
same,Minimum Inhibitory Concentration (MIC),[3],–
same,"Minimum bactericidal and fungicidal concentrations (MBC, MFC)",[3],–
same,Minimum Inhibitory Concentration (MIC),[1],–
same,"Minimum bactericidal and fungicidal concentrations (MBC, MFC)",[1],–
same,selectivity index (SI),[12],ns (ns—no selectivity)
same,selectivity index (SI),[13],1.3
same,selectivity index (SI),[14],1.2
same,MIC,[4],34.3 ± 5.4 µM
same,MBC,[4],137 ± 21 µM
same,IC50,[15],> 100 µM
same,selectivity index (SI),[16],3.5
same,IC50,[17],53.9 ± 6.9 µM
same,IC50,[18],37.8 ± 4.8 µM
same,IC50,[19],36.4 ± 4.7 µM
same,Minimum Inhibitory Concentration (MIC),[5],–
same,"Minimum bactericidal and fungicidal concentrations (MBC, MFC)",[5],–
same,MIC,"[6]; Staphylococcus aureus, read-out: Minimum Inhibitory Concentration (MIC)",137 ± 19 µM
same,MBC,"[6]; Staphylococcus aureus, read-out: Minimum bactericidal and fungicidal concentrations (MBC, MFC)",137 ± 18 µM
same,selectivity index (SI),[20],1.2
same,IC50,[21],34.9 ± 4.5 µM
same,MIC,"[7]; Bacillus cereus, Bc",274 ± 48 µM
same,"Minimum bactericidal and fungicidal concentrations (MBC, MFC)",[7]; Bc,–
same,Minimum Inhibitory Concentration (MIC),[2]; Ca,–
same,"Minimum bactericidal and fungicidal concentrations (MBC, MFC)",[2]; Ca,–
same,selectivity index (SI),[22],1.3
same,selectivity index (SI),[23],ns (ns—no selectivity)
same,IC50,[24],39.6 ± 5.1 µM
same,IC50,[25],13.1 ± 1.7 µM
same,MIC,[8],34.3 ± 5.3 µM
same,MBC,[8],137 ± 21 µM
same,selectivity index (SI),[26],1.5
"COc1cccc2c1C(=O)c1c(O)c3c(c(O)c1C2=O)C[C@@](O)(C(=O)CO)C[C@@H]3O[C@H]1C[C@H](N)[C@H](O)[C@H](C)O1 [doxorubicin, reference compound]",IC50,[9],0.7 ± 0.06 µM
same,IC50,[10]; read-out: Cytotoxic Effects (IC50),0.3 ± 0.02 µM
same,IC50,[11],2.1 ± 0.1 µM
same,IC50,[15],1 ± 0.09 µM
same,IC50,[17],0.2 ± 0.01 µM
same,IC50,[18],0.4 ± 0.03 µM
same,IC50,[19],6.7 ± 0.5 µM
same,IC50,[24],2.2 ± 0.1 µM
same,IC50,[25],0.2 ± 0.01 µM
